The subject of this test is NL-RLuc virus (recombinant NL4-3 HIV with Renilla Luciferase gene). Kind of test: Inhibition of HIV replication (NL-RLuc virus in MT-2 cells, luciferase readout). It is filed as cell-based, Human immunodeficiency virus (HIV). As to conditions: MT2, 120 h. An excerpt: Inhibition of HIV Replication:
A recombinant NL-RLuc proviral clone was constructed in which a section of the nef gene form NL4-3 was replaced with the Renilla Luciferase gene. This virus is fully infectious and can undergo multiple cycles of replication in cell culture. In addition, the luciferous reporter provides a simple and easy method for quantitating the extent of virus growth and consequently, the antiviral activity of test compounds. The plasmid pNLRLuc contains the proviral NL-Rluc DNA cloned into pUC18 at the PvuII site. The NL-RLuc virus was prepared by transfection of 293T cells with the plasmid pNLRLuc. Transfections were performed using the LipofectAMINE PLUS kit form Invitrogen (Carlsbad, Calif.) according to the manufacturer and the virus generated was titered in MT-2 cells. For susceptibility analyses, the titrated virus was used to infect MT-2 cells in the presence of compound, and after 5 days of incubation, cells were processed and quantitated for virus growth by the amount of expressed luciferase. Assay media was RPMI 1640 supplemented with 10% heat inactivated fetal bovine serum (FBS), 100 units/ml penicillin G/100 units/ml streptomycin, 10 mM HEPES buffer pH 7.55 and 2 mM L-glutamine. The results form at least 2 experiments were used to calculate the EC50 values. Luciferase was quantitated using the Dual Luciferase kit form Promega (Madison, Wis.). Susceptibility of viruses to compounds was determined by incubation in the presence of serial dilutions of the compound. The 50% effective concentration (EC50) was calculated by using the exponential form of the median effect equation where (Fa)=1/[1+(ED50/drug conc.)^m](Johnson V A, Byington R T. Infectivity Assay. In Techniques in HIV Research. ed. Aldovini A, Walker B D. 71-76. New York: Stockton Press. 1990).
One may read the EC50 as the concentration giving half of the maximal effect. As for `Cc1nc(CN2CCC2)c(-c2ccc3c(c2)CCN(c2ncnc4c2oc2ccccc24)C3)c(N2CCC(C)(C)CC2)c1[C@H](OC(C)(C)C)C(=O)O` [Example 160, (S)-2-(6-(Azetidin-1-ylmethyl)-5-(2-(benzofuro[3,2-d]pyrimidin-4-yl)-1,2,3,4-tetrahydroisoquinolin-6-yl)-4-(4,4-dimethylpiperidin-1-yl)-2-methylpyridin-3-yl)-2-(tert-butoxy)acetic Acid], the EC50 is 20 nM.

On to `Cc1cccc(Cl)c1CN1CCc2cc(-c3c(CNCCCCCCc4ccccc4)nc(C)c([C@H](OC(C)(C)C)C(=O)O)c3N3CCC(C)(C)CC3)ccc2C1` [Example 157, (S)-2-(tert-Butoxy)-2-(5-(2-(2-chloro-6-methylbenzyl)-1,2,3,4-tetrahydroisoquinolin-6-yl)-4-(4,4-dimethylpiperidin-1-yl)-2-methyl-6-(((6-phenylhexyl)amino)methyl)pyridin-3-yl)acetic Acid], for which the EC50 was found to be 340 nM. Regarding `Cc1nc(C)c([C@H](OC(C)(C)C)C(=O)O)c(N2CCC(C)(C)CC2)c1-c1ccc2c(c1)CCN(c1cc(N(C)CCCN(C)C)ncn1)C2` [Example 140, (S)-2-(tert-Butoxy)-2-(5-(2-(6-((3-(dimethylamino)propyl)(methyl)amino)pyrimidin-4-yl)-1,2,3,4-tetrahydroisoquinolin-6-yl)-4-(4,4-dimethylpiperidin-1-yl)-2,6-dimethylpyridin-3-yl)acetic Acid], the EC50 amounted to 35 nM. Under `Cc1nc(C)c([C@H](OC(C)(C)C)C(=O)O)c(N2CCC(C)(C)CC2)c1-c1ccc2c(c1)CCN(c1nccc(N3CCC(CCO)CC3)n1)C2` [Example 81, (S)-2-(tert-Butoxy)-2-(4-(4,4-dimethylpiperidin-1-yl)-5-(2-(4-(4-(2-hydroxyethyl)piperidin-1-yl)pyrimidin-2-yl)-1,2,3,4-tetrahydroisoquinolin-6-yl)-2,6-dimethylpyridin-3-yl)acetic Acid] stands 4 nM. As to `Cc1nc(C)c([C@H](OC(C)(C)C)C(=O)O)c(N2CCC(C)(C)CC2)c1-c1ccc2c(c1)CCN(c1ccnc(N3C4CCC3COC4)n1)C2` [Example 31, (2S)-2-(tert-Butoxy)-2-[4-(4,4-dimethylpiperidin-1-yl)-2,6-dimethyl-5-[2-(2-{3-oxa-8-azabicyclo[3.2.1]octan-8-yl}pyrimidin-4-yl)-1,2,3,4-tetrahydroisoquinolin-6-yl]pyridin-3-yl]acetic Acid], the EC50 turned out to be 2 nM. As to `Cc1nc(C)c([C@H](OC(C)(C)C)C(=O)O)c(N2CCC(C)(C)CC2)c1-c1ccc2c(c1)CCN(c1nccc(N3C4CCC3CN(C)C4)n1)C2` [Example 43, (2S)-2-(tert-Butoxy)-2-[4-(4,4-dimethylpiperidin-1-yl)-2,6-dimethyl-5-[2-(4-{3-methyl-3,8-diazabicyclo[3.2.1]octan-8-yl}pyrimidin-2-yl)-1,2,3,4-tetrahydroisoquinolin-6-yl]pyridin-3-yl]acetic Acid], the EC50 was 3 nM. Consider `Cc1nc(C)c([C@H](OC(C)(C)C)C(=O)O)c(N2CCC(C)(C)CC2)c1-c1ccc2c(c1)CCN(c1nccc(N3C[C@@H](C)N(C)[C@@H](C)C3)n1)C2` [Example 41, (2S)-2-(tert-Butoxy)-2-[4-(4,4-dimethylpiperidin-1-yl)-2,6-dimethyl-5-(2-{4-[(3R,5S)-3,4,5-trimethylpiperazin-1-yl]pyrimidin-2-yl}-1,2,3,4-tetrahydroisoquinolin-6-yl)pyridin-3-yl]acetic Acid], for which the EC50 amounted to 3 nM. For `COc1ccccc1-c1cc(N2CCc3cc(-c4c(C)nc(C)c([C@H](OC(C)(C)C)C(=O)O)c4N4CCC(C)(C)CC4)ccc3C2)ncn1` [Example 123, (S)-2-(tert-Butoxy)-2-(4-(4,4-dimethylpiperidin-1-yl)-5-(2-(6-(2-methoxyphenyl)pyrimidin-4-yl)-1,2,3,4-tetrahydroisoquinolin-6-yl)-2,6-dimethylpyridin-3-yl)acetic Acid], the EC50 is 11 nM.

For `CC1(C)CCN(c2c(-c3ccc4c(c3)CCN(c3nccc(-c5cccnc5)n3)C4)c(N)nc(Cl)c2[C@H](OC(C)(C)C)C(=O)O)CC1` [Example 101, (S)-2-(6-Amino-2-chloro-4-(4,4-dimethylpiperidin-1-yl)-5-(2-(4-(pyridin-3-yl)pyrimidin-2-yl)-1,2,3,4-tetrahydroisoquinolin-6-yl)pyridin-3-yl)-2-(tert-butoxy)acetic Acid], the EC50 was found to be 2 nM. For `Cc1nc(C)c([C@H](OC(C)(C)C)C(=O)O)c(N2CCC(C)(C)CC2)c1-c1ccc2c(c1)CCN(c1ncnc(N3CCOCC3)n1)C2` [Example 60, (S)-2-(tert-Butoxy)-2-(4-(4,4-dimethylpiperidin-1-yl)-2,6-dimethyl-5-(2-(4-morpholino-1,3,5-triazin-2-yl)-1,2,3,4-tetrahydroisoquinolin-6-yl)pyridin-3-yl)acetic Acid] the value was 0.6 nM. As for `Cc1nc(C)c([C@H](OC(C)(C)C)C(=O)O)c(N2CCC(C)(C)CC2)c1-c1ccc2c(c1)CCN(c1cc(N3CCC(N4CCCCC4)CC3)ncn1)C2` [Example 135, (S)-2-(5-(2-(6-([1,4′-Bipiperidin]-1′-yl)pyrimidin-4-yl)-1,2,3,4-tetrahydroisoquinolin-6-yl)-4-(4,4-dimethylpiperidin-1-yl)-2,6-dimethylpyridin-3-yl)-2-(tert-butoxy)acetic Acid], the EC50 was determined as 19 nM. On to `Cc1nc(C)c([C@H](OC(C)(C)C)C(=O)O)c(N2CCC(C)(C)CC2)c1-c1ccc2c(c1)CCN(c1cc(N3CCC(O)CC3)ncn1)C2` [Example 125, (S)-2-(tert-Butoxy)-2-(4-(4,4-dimethylpiperidin-1-yl)-5-(2-(6-(4-hydroxypiperidin-1-yl)pyrimidin-4-yl)-1,2,3,4-tetrahydroisoquinolin-6-yl)-2,6-dimethylpyridin-3-yl)acetic Acid], for which the EC50 came to 23 nM. Consider `Cc1nc(C)c([C@H](OC(C)(C)C)C(=O)O)c(N2CCC(C)(C)CC2)c1-c1ccc2c(c1)CCN(c1ccnc(N3CC4CCC(C3)O4)n1)C2` [Example 29, (2S)-2-(tert-Butoxy)-2-[4-(4,4-dimethylpiperidin-1-yl)-2,6-dimethyl-5-[2-(2-{8-oxa-3-azabicyclo[3.2.1]octan-3-yl}pyrimidin-4-yl)-1,2,3,4-tetrahydroisoquinolin-6-yl]pyridin-3-yl]acetic Acid], for which the EC50 came out at 4 nM. Take `Cc1cccc(Cl)c1CN1CCc2cc(-c3c(C(=O)N4CCC(C)(C)CC4)nc(C)c([C@H](OC(C)(C)C)C(=O)O)c3N3CCC(C)(C)CC3)ccc2C1` [Example 118, (S)-2-(tert-Butoxy)-2-(5-(2-(2-chloro-6-methylbenzyl)-1,2,3,4-tetrahydroisoquinolin-6-yl)-4-(4,4-dimethylpiperidin-1-yl)-6-(4,4-dimethylpiperidine-1-carbonyl)-2-methylpyridin-3-yl)acetic Acid]: the EC50 worked out at 1 nM. For `Cc1cccc(Cl)c1CN1CCc2cc(-c3c(NCCN4CCOCC4)nc(C)c([C@H](OC(C)(C)C)C(=O)O)c3N3CCC(C)(C)CC3)ccc2C1` [Example 5, (S)-2-(tert-Butoxy)-2-(5-(2-(2-chloro-6-methylbenzyl)-1,2,3,4-tetrahydroisoquinolin-6-yl)-4-(4,4-dimethylpiperidin-1-yl)-2-methyl-6-((2-morpholinoethyl)amino)pyridin-3-yl)acetic Acid] the value was 2 nM.
